Like-named read-outs stand apart in the source and are kept apart here.
Tested on: children with EE
Type: in vivo, human
Source text: Patient 1 was a person with a history of abdominal pain, failure to thrive, and vomiting since infancy, and developmental delay with isolated EE diagnosed in 2001. Their allergic history was significant for allergic rhinitis secondary to cat, dog, and dust mite exposure as well as positive Pharmacia CAP radioallergosorbent testing for fish and milk. […] They were referred to Children's Hospital Eosinophilic Gastrointestinal Disorders clinic for further management of EE recalcitrant to usual therapy. At the time of their referral, they continued to have vomiting and poor weight gain and their parent reported significant difficulty with the puff and swallow technique. They were placed on a regimen of twice daily oral budesonide suspension (Pulmicort®) 500 micrograms (4 ml) mixed with about 10 packets (1 gram each) sucralose (Splenda®), a non-absorbed sugar in order to increase fluid viscosity to be swallowed twice daily. The total volume of the preparation was about 7 to 8 ml. […] Eight am cortisol was 13.2 mcg/dL (normal range for age 3-15 mcg/dL) after four months of therapy.
Patient 2 was a child with a history of developmental delay, abdominal pain, and RAST positivity for milk, egg, and wheat. […] They were placed on a hydrolyzed formula containing milk protein (Peptamen Jr®), omeprazole 10 mg twice daily and oral cromolyn (Gastrocrom®) 100 mg four times daily. […] They were referred to the Children's Hospital Eosinophilic Gastrointestinal Disorders clinic for further management. […] After two months of elemental formula and oral cromolyn sodium, EGD was unchanged with a pale, furrowed esophagus and maximal eosinophil counts of 100, 90, and 70 per hpf in the distal, mid, and proximal esophagus with diffuse basal zone hyperplasia. Their developmental delay precluded the use of a fluticasone inhaler devise with puff and swallow technique. As an alternative, they received oral budesonide 500 micrograms (Pulmicort®) mixed with sucralose (Splenda®) twice daily as topical esophageal therapy.

[1] = Patient 2, elemental formula and oral cromolyn sodium, two months
[2] = Patient 2, hydrolyzed formula, omeprazole and oral cromolyn 100 mg four times daily, 12 months

**Q.** What does the source list for `CCC(=O)O[C@]1(C(=O)SCF)[C@H](C)C[C@H]2[C@@H]3C[C@H](F)C4=CC(=O)C=C[C@]4(C)[C@@]3(F)[C@@H](O)C[C@@]21C` [fluticasone]?
**A.** maximal eosinophil count (Patient 1, elemental formula and fluticasone, accompanied by basal zone hyperplasia): 74 per hpf; maximum eosinophil count (Patient 1, omeprazole 10 mg twice daily and fluticasone 220 ug twice daily, after 6 months): 50 per hpf

**Q.** With `C[C@]12C=CC(=O)C=C1CC[C@@H]1[C@@H]2C(=O)C[C@@]2(C)[C@H]1CC[C@]2(O)C(=O)CO` [prednisone] as the compound, how does the “maximum eosinophils per hpf on repeat EGD with biopsy” value (Patient 1 (EE, 60 per hpf at diagnosis), oral prednisone 0.5 mg per kg daily for one month) read?
**A.** The value was 2 per hpf.

**Q.** With `O=C(O)c1cc(=O)c2c(OCC(O)COc3cccc4oc(C(=O)O)cc(=O)c34)cccc2o1` [cromolyn] as the compound, how does the “maximum eosinophil count, distal esophagus” value (Patient 2 (40 per hpf before), hydrolyzed formula (Peptamen Jr), omeprazole 10 mg twice daily and oral cromolyn 100 mg four times daily, 12 months) read?
**A.** The value was 94 per hpf.

**Q.** And the “maximal eosinophil count, distal esophagus” value [1]?
**A.** The value was 100 per hpf.

**Q.** And the “maximal eosinophil count, mid esophagus” value [1]?
**A.** Its value is 90 per hpf.

**Q.** And the “maximal eosinophil count, proximal esophagus” value [1]?
**A.** The value was 70 per hpf.

**Q.** What about the “maximum eosinophil count, mid esophagus” value [2] of the same compound?
**A.** The value was 65 per hpf.

**Q.** What about the “maximum eosinophil count, proximal esophagus” value [2] of the same compound?
**A.** Its value is 90 per hpf.

**Q.** How did the “maximum eosinophil count, proximal esophagus” value (Patient 2 (70 before), oral budesonide 500 micrograms mixed with sucralose twice daily, 3 months) turn out when `CCCC1O[C@@H]2C[C@H]3[C@@H]4CCC5=CC(=O)C=C[C@]5(C)[C@H]4[C@@H](O)C[C@]3(C)[C@]2(C(=O)CO)O1` (stereo partly drawn) [budesonide, 16,17-(butylidenebis(oxy))-11,21-dihydroxy-, (11-β,16-α)-pregna-1,4-diene-3,20-dione] was run?
**A.** The value was 5 per hpf.

**Q.** And the “maximum eosinophil count, mid esophagus” value (Patient 2 (90 before), oral budesonide 500 micrograms mixed with sucralose twice daily, 3 months)?
**A.** Its value is 20 per hpf.

**Q.** What about the “maximum eosinophil count, distal esophagus” value (Patient 2 (100 before), oral budesonide 500 micrograms (Pulmicort) mixed with sucralose twice daily, 3 months) of the same compound?
**A.** The value was 28 per hpf.

Reference: US11413296B2, “Viscous budesonide for the treatment of inflammatory diseases of the gastrointestinal tract” (The Regents of the University of California, priority 2005, dated 2022)
